Measured values from patent US20240024273A1, “TOPICAL ADMINISTRATION OF 2-(DIETHYLAMINO)ETHYL 2-(4-ISOBUTYLPHENYL)PROPRIONATE FOR TREATMENT OF DISEASES” (TECHFIELDS PHARMA CO., LTD., priority 2020, published 2024).
Where two headings read alike, the source gives them in different places.

Assay: Phase 1 clinical study: plasma pharmacokinetics of prodrug and ibuprofen
Format: in vivo, human
Conditions: for AUC0-12: read-out: prodrug AUC0-12; for AUC(0-t): read-out: prodrug AUClast; for Cmax: read-out: prodrug Cmax; for Tmax: read-out: prodrug Tmax, median (range); for half-life: read-out: prodrug t1/2 (converted)
Description: Following a 5-day washout period, 2-(diethylamino)ethyl 2-(4-isobutylphenyl)propionate was administered b.i.d. during Days 6-11, and a morning dose only was administered to Day 12. Blood samples were collected for PK analysis over the 120-hour post-dose period following the Day 12 dose. Additionally, pre-dose blood samples were collected on Day 7 through Day 11 to evaluate steady-state status.
The same study procedures were followed as described in Part 1.
For single dose PK, serial blood samples were collected on Day 1 dose at the following time points: 0 (pre-dose), 0.25, 0.5, 0.75, 1, 1.5, 2, 2.5, 3, 4, 5, 6, 8, 10, 12, 18, 24, 48, 72, 96 and 120 hours post-dose.
For multiple-dose PK, serial blood samples were collected on Day 12 at the following time points: 0 (pre-dose), 0.25, 0.5, 0.75, 1, 1.5, 2, 2.5, 3, 4, 5, 6, 8, 10, 12, 18, 24, 48, 72, 96 and 120 hours post-dose.
The relative bioavailability of the single dose 70 mg topical application vs. 70 mg spray application was determined based on AUCtau, AUCinf and Cmax. The 90% confidence intervals (CIs) on the ratio of topical application vs. spray application were calculated.

[1] = human, plasma, topical or ocular, 17.5 mg, Day 1, 17.5 mg topical
[2] = human, plasma, topical or ocular, 17.5 mg, Day 12, 17.5 mg b.i.d. topical
[3] = human, plasma, topical or ocular, 35 mg, Day 1, 35 mg topical
[4] = human, plasma, topical or ocular, 35 mg, Day 12, 35 mg b.i.d. topical
[5] = human, plasma, topical or ocular, 70 mg, Day 1, 70 mg topical
[6] = human, plasma, topical or ocular, 70 mg, Day 12, 70 mg b.i.d. topical
[7] = human, plasma, topical or ocular, 140 mg, Day 1, 140 mg topical
[8] = human, plasma, topical or ocular, 140 mg, Day 12, 140 mg b.i.d. topical
[9] = human, plasma, topical or ocular, 280 mg, Day 1, 280 mg topical
[10] = human, plasma, topical or ocular, 280 mg, Day 12, 280 mg b.i.d. topical
[11] = human, plasma, topical, 70 mg, Day 1, 70 mg spray
[12] = human, plasma, topical, 70 mg, Day 12, 70 mg b.i.d. spray

CCN(CC)CCOC(=O)C(C)c1ccc(CC(C)C)cc1 (centres unmarked) [2-(diethylamino)ethyl 2-(4-isobutylphenyl)propionate]
dose proportionality of prodrug and ibuprofen Cmax and AUC0-last (17.5 mg to 280 mg, single and multiple): did not increase in a dose-proportional manner
prodrug mean Cmax after 7 days b.i.d., increase (140 mg and 280 mg doses): about 2 fold
prodrug Kel (Day 12, 17.5 mg b.i.d. topical): 0.0241 (N/A) 1/h
prodrug Kel (Day 12, 70 mg b.i.d. topical): 0.0656 (N/A) 1/h
prodrug Kel (Day 12, 140 mg b.i.d. topical): 0.0398 (N/A) 1/h
prodrug Kel (Day 12, 280 mg b.i.d. topical): 0.0374 (0.0310) 1/h
conversion of absorbed prodrug to ibuprofen (human, in vivo): > 99%
AUC0-12 [1]: 0.837 ng·h/mL
AUC(0-t) [1]: 1.45 ng·h/mL
Cmax [1]: 0.158 ng/mL
Tmax [1]: 8 h
AUC0-12 [2]: 0.809 ng·h/mL
AUC(0-t) [2]: 1.31 ng·h/mL
Cmax [2]: 0.092 ng/mL
Tmax [2]: 8 h
AUC0-12 [3]: 0.34 ng·h/mL
AUC(0-t) [3]: 0.864 ng·h/mL
Cmax [3]: 0.0862 ng/mL
Tmax [3]: 11 h
AUC0-12 [4]: 1.21 ng·h/mL
AUC(0-t) [4]: 2.29 ng·h/mL
Cmax [4]: 0.153 ng/mL
Tmax [4]: 5.12 h
AUC0-12 [5]: 0.836 ng·h/mL
AUC(0-t) [5]: 1.99 ng·h/mL
Cmax [5]: 0.16 ng/mL
Tmax [5]: 10 h
AUC0-12 [6]: 1.1 ng·h/mL
AUC(0-t) [6]: 1.49 ng·h/mL
Cmax [6]: 0.162 ng/mL
Tmax [6]: 3.5 h
AUC0-12 [7]: 0.478 ng·h/mL
AUC(0-t) [7]: 1.45 ng·h/mL
Cmax [7]: 0.116 ng/mL
Tmax [7]: 18 h
AUC0-12 [8]: 1.82 ng·h/mL
AUC(0-t) [8]: 3.6 ng·h/mL
Cmax [8]: 0.305 ng/mL
Tmax [8]: 2.5 h
AUC0-12 [9]: 0.675 ng·h/mL
AUC(0-t) [9]: 4.48 ng·h/mL
Cmax [9]: 0.233 ng/mL
Tmax [9]: 18 h
AUC0-12 [10]: 3.71 ng·h/mL
AUC(0-t) [10]: 11.6 ng·h/mL
Cmax [10]: 0.505 ng/mL
Tmax [10]: 0.25 h
half-life (human, plasma, topical or ocular, Day 12, 17.5 mg b.i.d. topical): 28.8 h
half-life (human, plasma, topical or ocular, Day 12, 70 mg b.i.d. topical): 10.6 h
half-life (human, plasma, topical or ocular, Day 12, 140 mg b.i.d. topical): 17.4 h
AUC(0-inf) (human, plasma, topical or ocular, Day 12, 280 mg b.i.d. topical, read-out: prodrug AUCinf): 18.1 ng·h/mL
half-life (human, plasma, topical or ocular, Day 12, 280 mg b.i.d. topical): 37.8 h
AUC0-12 [11]: 0.514 ng·h/mL
AUC(0-t) [11]: 0.947 ng·h/mL
Cmax [11]: 0.119 ng/mL
Tmax [11]: 10 h
AUC0-12 [12]: 1.06 ng·h/mL
AUC(0-t) [12]: 2.62 ng·h/mL
Cmax [12]: 0.185 ng/mL
Tmax [12]: 3 h
relative bioavailability of spray vs topical application (plasma ibuprofen) (single application, 70 mg): lower
time by which all subjects had measurable plasma prodrug levels (topical application): ≤ 3 hours post-dose
